Among the test systems are DMS 114 small cell lung; HOP-18 NSCLC; LXFL 529 NSCLC; M19-MEL melanoma; RXF-631 renal; SNB-78 CNS; XF 498 CNS; DMS 273 small cell lung.
Holding throughout (experiment): growth of human tumour cells (NCI), 48 h

Molecules are shown by their SMILES.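 Protocol summary: plate cells (96-well), add compound at 5 concentrations, incubate 48 h, interpolate endpoints linearly. TGI is the concentration that stops growth completely.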 Some results are limits rather than exact numbers.

In the case of `COc1ccc(-c2cc(=O)c3cc(Cl)ccc3[nH]2)cc1`, the TGI with DMS 114 small cell lung, with HOP-18 NSCLC, with LXFL 529 NSCLC, in the assay on M19-MEL melanoma, in the assay with RXF-631 renal and with SNB-78 CNS was more than 100 µM each time. The molecule further displayed a TGI in the assay on XF 498 CNS of more than 100 µM.

As for `Cc1cc2c(=O)c(C)n[nH]c2c(C#N)c1C`, the TGI in the assay with DMS 273 small cell lung, in the assay with HOP-18 NSCLC, with LXFL 529 NSCLC, in the assay with M19-MEL melanoma, in the assay with RXF-631 renal and in the assay on XF 498 CNS was more than 100 µM each time.

Consider `N#Cc1ccccc1NC(=O)C(=O)C(C(=O)c1ccncc1)C1OC(=O)c2ccccc21` (configuration not stated), for which the TGI in the assay with DMS 114 small cell lung, with HOP-18 NSCLC, in the assay on LXFL 529 NSCLC, in the assay on M19-MEL melanoma, in the assay with RXF-631 renal and in the assay on SNB-78 CNS was more than 100 µM throughout. The same molecule yielded a TGI in the assay with XF 498 CNS of more than 100 µM.

Take `COc1ccc([Se][Se]c2ccc(OC)cc2OC)c(OC)c1`: the TGI amounted to 4.82 µM in the assay on DMS 114 small cell lung; 19.7 µM in the assay on DMS 273 small cell lung; 4.72 µM in the assay on HOP-18 NSCLC; 4.64 µM with LXFL 529 NSCLC; 4.68 µM with M19-MEL melanoma; 59.2 µM in the assay on RXF-631 renal. Moreover, the TGI in the assay with SNB-78 CNS came to 7.04 µM; in the assay on XF 498 CNS it was 3.84 µM.

Consider `O=c1c(C(c2ccc([N+](=O)[O-])cc2)c2c(O)c3ccccc3n(-c3ccccc3)c2=O)c(O)c2ccccc2n1-c1ccccc1`, for which the TGI was 73.5 µM in the assay with DMS 114 small cell lung; more than 100 µM in the assay on DMS 273 small cell lung; 9.08 µM in the assay on HOP-18 NSCLC; 54.7 µM in the assay with LXFL 529 NSCLC; more than 100 µM in the assay with M19-MEL melanoma; 44.6 µM in the assay with RXF-631 renal. The figures for the TGI in the assay with SNB-78 CNS and in the assay with XF 498 CNS were more than 100 µM and 58.4 µM, respectively.

As to `CC(C)c1cccc(C(C)C)c1NC(=O)C(=O)C1CCC2=C(Sc3ccccc3N2)C1=O` (configuration not stated), the TGI in the assay on DMS 114 small cell lung, in the assay with DMS 273 small cell lung, with HOP-18 NSCLC, in the assay with LXFL 529 NSCLC, with M19-MEL melanoma and in the assay with RXF-631 renal was more than 100 µM each time. For the same molecule, the TGI in the assay on SNB-78 CNS is more than 100 µM.

On to `O=c1[nH]nc(CNc2ccc(Cl)cc2Cl)c2ccccc12`, for which the TGI in the assay on DMS 114 small cell lung was 37.1 µM; in the assay on DMS 273 small cell lung, 72.9 µM; with HOP-18 NSCLC it was 54.4 µM; in the assay with LXFL 529 NSCLC it was 40.1 µM; in the assay with M19-MEL melanoma, more than 100 µM; with RXF-631 renal, more than 100 µM. In the assay on SNB-78 CNS, this molecule registered a TGI of more than 100 µM.

With `C=CCCCN1CCCCC1=S`, the TGI in the assay with DMS 114 small cell lung, with DMS 273 small cell lung, in the assay on HOP-18 NSCLC, in the assay with M19-MEL melanoma, in the assay with RXF-631 renal and with XF 498 CNS was more than 100 µM in each case.

Consider `O=C(CC1(O)C(=O)Nc2ccc([N+](=O)[O-])cc21)c1ccncc1` (configuration not stated), for which the TGI in the assay with DMS 114 small cell lung is 82.8 µM; in the assay with HOP-18 NSCLC it was more than 100 µM; with M19-MEL melanoma, 63.1 µM; in the assay with RXF-631 renal, 54.7 µM; in the assay with SNB-78 CNS, more than 100 µM; in the assay on XF 498 CNS, 34.2 µM.

The values are drawn from PubChem BioAssay (NCI).
